Experimental findings from paper PMC4623604, “Discovery of Small Molecules that Inhibit the Disordered Protein, p27^Kip1” (Scientific Reports, 2015) are described below.

In assay [1] the target is T1, p27-KID (Homo sapiens, UniProt P46527).
T1 construct: 6xHis (N, cleaved yes); made in house; host or cells: E. coli (pET28a)
The assay can be described thus: NMR 2D 1H-15N in-phase HSQC titration, binding affinity for p27:small molecule interactions. The following applies: sixteen-point titration, 100 μM 15N-p27-KID, inhibitor 0-3 mM. As to the method:
1D and 2D NMR analysis of these molecules led to the identification of 15 additional p27-D2-binding compounds (six with Group 1-like binding features and nine with Group 2-like features; Suppl. Fig. 3b and Suppl. Table 1b).
Sixteen point titrations of representative fragment hits from Group 1 and Group 2 (SJ572710 and SJ572403, respectively) into ^15N-p27-KID (100 μM) were recorded using an adopted “in-phase” 2D ^1H-^15N HISQC with proton decoupling during ^15N chemical shift labeling achieved with a WALTZ16 composite pulse with an amplitude of 7.1 kHz[54][55]. All experiments were collected at a Bruker Avance 800 MHz spectrometer equipped with TCI cryogenic gradient probe. The following molar ratios of ^15N-p27-KID (100 μM) to inhibitor were used: 1:0, 1:0.1, 1:1.5, 1:3, 1:4.5, 1:6, 1:7.5, 1:9, 1:10.5, 1:12, 1:15, 1:18, 1:21, 1:24, 1:27 and 1:30. Each spectrum was recorded with 256 (t1,max = 31.0 ms) and 1024 (t2,max = 106.5 ms) complex points in the ^15N and ^1H dimensions, respectively, with eight transients collected per point. The spectral resolution of the ^1H and ^15N dimensions was 2.4 and 1.7 Hz, respectively. […] The data was processed using the NMRPipe package[56] and analyzed using in-house scripts written in Python using the Scipy computing libraries and Mathematica (Wolfram Research). […]

In assay [2] the target is T2, p27-D2/Cdk2/cyclin A (Homo sapiens, UniProt P46527).
T2 construct: p27-D2 (residues 58-105 of human p27); 6xHis (N, cleaved yes); made in house; host or cells: E. coli for p27-D2
T2 sequence (P46527 58-105): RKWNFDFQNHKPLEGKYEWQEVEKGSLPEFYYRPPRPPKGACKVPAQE
The experiment in a line: Cdk2/cyclin A kinase activity assay in the presence of p27-D2 (restoration of activity). The class given is biochemical. Here is the method:
Figure 6 The small molecule SJ403 displaces p27-D2 from Cdk2/cyclin A and partially restores Cdk2 kinase activity. Analysis of Cdk2 kinase activity [within the Cdk2/cyclin A complex (200 pM) using Histone H1 as the substrate] in the presence of p27-D2 (200 nM) and varied concentrations of SJ403 (from 10 μM to 3 mM) (a) and varied concentrations of SJ403 alone (b). Cdk2 is partially active under the starting conditions in (a) and activity is enhanced through addition of SJ403. In the absence of p27-D2 (b), addition of SJ403 is associated with Cdk2 inhibition. All experiments were performed in triplicate and average values and the standard deviations of the means are shown.
Cdk2/Cyclin A (200 pM) was mixed with Histone H1 (15 μM; EMD Millipore), p27-D2 (200 nM) and varied amounts of lyophilized SJ403 and incubated overnight at 4 °C. The effect of the SJ403 compound on Cdk2 activity was determined by performing similar experiments in the absence of p27-D2. […] The reactions were quenched by addition of SDS-gel loading buffer (5 μL) and then analyzed by SDS-PAGE (10 μL). The gels were dried at 70 °C under vacuum and a phosphoimager (GE Healthcare, Piscataway, NJ) was used to quantify the ^32P-Histone H1 bands. IC50 values were determined by curve fitting using KaleidaGraph software. […]

The structures appear in SMILES notation.

T1 sequence (P46527 22-105): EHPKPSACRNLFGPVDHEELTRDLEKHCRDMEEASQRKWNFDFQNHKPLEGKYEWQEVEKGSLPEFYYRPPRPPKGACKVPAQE

As for `CCn1c(C)c(C)n2c3c(=O)n(C)c(=O)n(C)c3nc12` [SJ403], the Kd – broadly, the concentration at which binding is half-saturated – in assay [1] came to 2200 ± 300 µM. In addition, in assay [2] (200 nM p27-D2, 200 pM Cdk2/cyclin A, SJ403 10 μM to 3 mM, start 13%), the “Cdk2 kinase activity after titration of SJ403 (of full kinase activity)” value was ~ 20%. Also, in assay [2] (from 13% to ~20% of full activity, 200 nM p27-D2), the “increase in Cdk2 kinase activity” value is recorded as more than 50%.
